The target of series [1] is Factor XIa (Homo sapiens (Human), UniProt P03951). As to the kind of experiment: Factor XIa enzyme inhibition assay (dose response, fluorogenic AMC substrate). It is filed as biochemical. To be noted: read-out: hFXIa IC50. The method, boiled down:
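Fluorogenic progress curves (30 min, 1-min reads, 30° C) were recorded for 0.25 nM FXIa cleaving 50 μM Glp-Pro-Arg-AMC in Hepes pH 7.4 buffer with NaCl and Tween 20. Compounds were serially two-fold diluted, and IC50 was fitted with a Hill equation.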

Series [2] can be described thus: Plasma protein binding by equilibrium dialysis. It is filed as in vitro ADME. The following applies: both sexes, pH 7.4, pooled human plasma, 4 hours at 37° C., read-out: PPB (%). In short, it runs like this:
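Pooled mixed-gender human plasma spiked with compound at 10 μM was dialysed against PBS pH 7.4 for 4 h at 37°C. Both compartments were quantified by HPLC-MS/MS, and % bound was calculated from plasma vs buffer peak areas.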
Background: In equilibrium dialysis only unbound substance equilibrates across the membrane.

Series [3] in a line: Metabolic stability in dog hepatocytes. It is filed as in vitro ADME. The following applies: pooled cryopreserved hepatocytes; beagle dog hepatocytes, 2 μM compound; read-out: Dog Hepatocyte Stability (t1/2). The method, boiled down:
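Pooled cryopreserved beagle hepatocytes at 500,000 cells/mL in Krebs-Henseleit buffer with 2 μM compound, 37 °C, 5% CO2, sampled out to 180 min. Acetonitrile-quenched samples analysed by LC-MS/MS; percent remaining from peak area versus time zero.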

A value given as a limit tells only on which side of the number the result lay.

Sequence of Factor XIa (P03951 388-625): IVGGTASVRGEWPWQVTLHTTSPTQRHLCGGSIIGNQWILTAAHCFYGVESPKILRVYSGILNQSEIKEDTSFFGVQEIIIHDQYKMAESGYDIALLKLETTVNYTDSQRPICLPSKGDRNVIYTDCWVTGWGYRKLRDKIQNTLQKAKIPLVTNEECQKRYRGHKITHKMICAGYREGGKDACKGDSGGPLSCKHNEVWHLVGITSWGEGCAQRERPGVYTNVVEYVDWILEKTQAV
Sequence of Factor XIa (P03951 19-387 partner): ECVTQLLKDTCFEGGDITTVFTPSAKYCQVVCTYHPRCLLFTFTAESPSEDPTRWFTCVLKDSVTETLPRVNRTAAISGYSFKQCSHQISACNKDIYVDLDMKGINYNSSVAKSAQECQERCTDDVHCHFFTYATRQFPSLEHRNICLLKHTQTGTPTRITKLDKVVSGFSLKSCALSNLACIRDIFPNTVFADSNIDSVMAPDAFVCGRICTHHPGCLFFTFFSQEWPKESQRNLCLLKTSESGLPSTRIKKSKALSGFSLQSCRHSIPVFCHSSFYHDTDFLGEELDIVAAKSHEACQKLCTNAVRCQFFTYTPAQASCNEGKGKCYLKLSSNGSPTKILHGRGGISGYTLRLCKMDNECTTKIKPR

In general, IC50 refers to the concentration needed to halve the response being measured. Consider `CC[C@@H](NC(=O)N1C(=O)[C@H](Cc2ccnc(N)c2)[C@H]1C(=O)N(C)c1ccn(C)n1)c1cccc(Cl)c1` [Compound 1-91, (2S,3R)-3-((2-aminopyridin-4-yl)methyl)-N2-(1-methyl-1H-pyrazol-3-yl)-N1-((R)-1-(3-chlorophenyl)propyl)-N2-methyl-4-oxoazetidine-1,2-dicarboxamide], for which the half-maximal inhibitory concentration (IC50) in series [1] is less than 10 nM. Further, the fraction unbound at 4 h, 10 μM in series [2] fell in the range of 0.1 to 0.5. Also, the half-life at 2 μM in series [3] was in the range of 1.02 to 2 h.

With `CC[C@@H](NC(=O)N1C(=O)[C@H](Cc2ccnc(N)c2)[C@H]1C(=O)N(C)c1ccnn1C)c1ccccc1` [Compound 1-92, (2S,3R)-3-((2-aminopyridin-4-yl)methyl)-N2-(1-methyl 1H-pyrazol-5-yl)-N1-((R)-1-phenylpropyl)-N2-methyl-4-oxoazetidine-1,2-dicarboxamide], the IC50 in series [1] is less than 10 nM. Besides, the fraction unbound at 4 h, 10 μM in series [2] fell in the range of 0.1 to 0.5. The half-life at 2 μM in series [3] fell in the range of 2.02 to 4 h.

On to `CC[C@@H](NC(=O)N1C(=O)[C@H](Cc2cc(C)nc(N)c2)[C@H]1C(=O)N(C)c1nccn1C)c1cc(F)ccc1F` [Compound 1-137, (2S,3R)-3-((2-amino-6-methylpyridin-4-yl)methyl)-N2-(1-methyl-1H-imidazol-2-yl)-N1-((R)-1-(2,5-difluorophenyl)propyl)-N2-methyl-4-oxoazetidine-1,2-dicarboxamide], for which the IC50 in series [1] is less than 10 nM. Further, the fraction unbound at 4 h, 10 μM in series [2] is 0.05 to 0.09. The half-life at 2 μM in series [3] is greater than 4 h.

On to `CC[C@@H](NC(=O)N1C(=O)[C@H](Cc2cc(C)nc(N)c2)[C@H]1C(=O)N(C)c1ccnn1C)c1ccc(C)c(C)c1` [Compound 1-152, (2S,3R)-3-((2-amino-6-methylpyridin-4-yl)methyl)-N2-(1-methyl-1H-pyrazol-5-yl)-N1-((R)-1-(3,4-dimethylphenyl)propyl)-N2-methyl-4-oxoazetidine-1,2-dicarboxamide], for which the IC50 in series [1] was less than 10 nM. In series [2], the fraction unbound at 4 h, 10 μM lay within 0.1 to 0.5. The half-life at 2 μM in series [3] lay within 1.02 to 2 h.

For the compound `CC[C@@H](NC(=O)N1C(=O)[C@H](Cc2cc(C)nc(N)c2)[C@H]1C(=O)N(C)c1ccnn1C)c1ccc(C)c(F)c1` [Compound 1-155, (2S,3R)-3-((2-amino-6-methylpyridin-4-yl)methyl)-N2-(1-methyl-1H-pyrazol-5-yl)-N1-((R)-1-(3-fluoro-4-methylphenyl)propyl)-N2-methyl-4-oxoazetidine-1,2-dicarboxamide], the half-inhibitory concentration (IC50) in series [1] is less than 10 nM. Also, in series [2], the fraction unbound at 4 h, 10 μM was 0.1 to 0.5. For the same compound, in series [3], the half-life at 2 μM was in the range of 2.02 to 4 h.

With `CC[C@@H](NC(=O)N1C(=O)[C@H](Cc2cc(C)nc(N)c2)[C@H]1C(=O)N(C)c1ccnn1C)c1ccc(F)c(F)c1` [Compound 1-158, (2S,3R)-3-((2-amino-6-methylpyridin-4-yl)methyl)-N2-(1-methyl-1H-pyrazol-5-yl)-N1-((R)-1-(3,4-difluorophenyl)propyl)-N2-methyl-4-oxoazetidine-1,2-dicarboxamide], the concentration for half-maximal inhibition (IC50) in series [1] was less than 10 nM. The fraction unbound at 4 h, 10 μM in series [2] was in the range of 0.05 to 0.09. In series [3], the half-life at 2 μM lay within 2.02 to 4 h.

Values taken from US11691962B2 (eXIthera Pharmaceuticals, Inc., priority 2018, dated 2023).
